# In patent US20110118313A1, “IDENTIFICATION OF A MOLECULAR SIGNATURE FOR ANTIPSYCHOTICS AND SERMS” (priority 2008, published 2011):
# Experiments:
# [1] = tested on: Saccharomyces cerevisiae heterozygotes; conditions: cited from earlier work
# ARPE-19 cell line = experiment: Gene expression profiling (U133A2.0 microarrays) of drug-treated ARPE-19 cells; antipsychotic signature of lipid homeostasis genes; type: cell-based, human; conditions: ARPE-19, 10 μM, 24 hrs; for up-regulation of the top 20 probe sets of the antipsychotic group profile: FIG. 3
# Excerpt: The retinal pigment epithelia cell line, ARPE-19/HPV-16, was chosen to establish a database of drug profiles because it is from non-cancerous human origin, with a normal karyotype, and can easily be grown as monolayer in 96-well plates. H4 is a hypertriploid cell line from glioblastoma origin, which was used only for independent replication. Cell lines were propagated according to supplier's specifications (ATCC Manassas, Va.). Compounds were obtained from Sigma (St. Louis, Mo.) or Vanda Pharmaceuticals (Rockville, Md.). Cells were aliquoted to 96-well plates (˜2×10e5 cells/well) and incubated for 24 hrs prior to providing fresh media with a drug, or the drug vehicle (water, dimethyl sulfoxide, ethanol, methanol, or phosphate-buffered saline solution). Drugs were diluted 1000 fold in buffered Advanced D-MEM/F-12 culture medium (Invitrogen, Carlsbad, Calif.) containing non-essential amino acids and 110 mg/L sodium pyruvate. In these conditions, no significant changes of pH were expected, which was confirmed by the monitoring of the pH indicator present in the medium. A final 10 μM drug concentration was chosen because it is believed to fit in the range of physiological relevance, and has been used in other cell line studies (Ferro et al. 2006; Lamb et al. 2006). Microscopic inspection of each well was conducted at the end of the treatment to discard any instance where cells had morphological changes consistent with apoptosis, and to verify that the drug had not precipitated in the culture medium.
# Cells were harvested 24 hrs after treatment and RNA extracted using the RNeasy 96 protocol (Qiagen, Valencia, Calif.). Gene expression for 22,238 probe sets of 12,490 genes was generated with U133A2.0 microarrays following the manufacture's instructions (Affymetrix, Santa Clara, Calif.). Antipsychotics were profiled in duplicate or triplicate, with multiple vehicle controls on each plate. A total of 708 microarrays were analysed including 74 for the 18 antipsychotics, 499 for the other 448 compounds, and 135 for vehicle controls.
# Each drug treatment-vehicle control pair (treatment instance) was represented by a non-parametric rank-ordered list constructed as follows, similarly to the method described by Lamb and colleagues (Lamb et al. 2006). The raw scan data were first converted to average difference values using MAS 5.0 (Affymetrix). The average difference values of both treatment and control data were set to a minimum threshold of 50 if below 50. For each treatment instance, all probe sets were then ranked based on their amplitude, or level of expression relative to the vehicle control (or average of controls when more than one was used). Amplitude was defined as the ratio of expression (t−v)/[(t+v)/2] where t corresponds to treatment instance and v to vehicle instance.
# Each drug group profile was created using our novel Weighted Influence Model, Rank of Ranks (WIMRR) method which underscores the rank of each probe set across the entire gene expression profile rather than the specific change in expression level. WIMRR takes the average rank of each probe set across all of the members of the group and then re-ranks the probe sets from smallest average rank to largest average rank.
# A gene-set enrichment metric based on the Kolmogorov-Smirnov (KS) statistic was used in a similar fashion by Lamb and colleagues (Lamb et al. 2006). Specifically, for a given set of probes, the KS score gives a measure of how up (positive) or down (negative) the set of probes occurs within the profile of another treatment instance.
# [2] = 2-3 weeks of antipsychotic treatment, schizophrenic patients; cited from earlier work
# mouse striatum = conditions: cited from earlier work
# [3] = patients with bipolar disorder; cited from earlier work
# [4] = rats; cited from earlier work
# [5] = women affected with schizophrenia; cited from earlier work
# [6] = patients; cited from earlier work
compound,measurement,setting,value
CN1CCN(CCCN2c3ccccc3Sc3ccc(C(F)(F)F)cc32)CC1 [trifluoperazine],"effect on genes involved in yeast fatty acid biosynthesis, sterol biosynthesis or phospholipid transport",[1],strong effect
OCCN1CCN(CCCN2c3ccccc3Sc3ccc(Cl)cc32)CC1 [perphenazine],up-regulation of the top 20 probe sets of the antipsychotic group profile,ARPE-19 cell line,stronger up-regulation
CN(C)CCCN1c2ccccc2Sc2ccc(Cl)cc21 [chlorpromazine],"effect on genes involved in yeast fatty acid biosynthesis, sterol biosynthesis or phospholipid transport",[1],strong effect
O=C1CCc2ccc(OCCCCN3CCN(c4cccc(Cl)c4Cl)CC3)cc2N1 [aripiprazole],"plasma levels of certain lipid classes (PE, PC, TG, LY)",[2],minimal effect
CCN(CC)CCOc1ccc(C(=C(Cl)c2ccccc2)c2ccccc2)cc1 [clomiphene],effect on lipid homeostasis (gene expression signature),ARPE-19 cell line,alter lipid homeostasis
O=C(CCCN1CCC(O)(c2ccc(Cl)cc2)CC1)c1ccc(F)cc1 [haloperidol],differential expression of genes involved in lipid metabolism,mouse striatum,differential expression of genes involved in lipid metabolism
same,"effect on genes involved in yeast fatty acid biosynthesis, sterol biosynthesis or phospholipid transport",[1],strong effect
OCCN1CCN(CCCN2c3ccccc3Sc3ccc(C(F)(F)F)cc32)CC1 [fluphenazine],up-regulation of the top 20 probe sets of the antipsychotic group profile,ARPE-19 cell line,stronger up-regulation
CC/C(=C(\c1ccccc1)c1ccc(OCCN(C)C)cc1)c1ccccc1 [tamoxifen],mania symptoms,[3],reduce mania symptoms
same,effect on lipid homeostasis (gene expression signature),ARPE-19 cell line,alter lipid homeostasis
same,obesity induced by the antipsychotic sulpiride,[4],prevent obesity
CCc1c(C)[nH]c2c1C(=O)C(CN1CCOCC1)CC2 (centres unmarked) [Molindone],up-regulation of the top 20 probe sets of the antipsychotic group profile,ARPE-19 cell line,lowest effect
CN1CCCCC1CCN1c2ccccc2Sc2ccc([S+](C)[O-])cc21 (centres unmarked) [mesoridazine],up-regulation of the top 20 probe sets of the antipsychotic group profile,ARPE-19 cell line,lowest effect
C[C@]12CC[C@@H]3c4ccc(O)cc4CC[C@H]3[C@@H]1CC[C@@H]2O [oestradiol],symptoms of psychosis and cognitive functioning,[5],improve
Cc1nc2n(c(=O)c1CCN1CCC(c3noc4cc(F)ccc34)CC1)CCCC2 [risperidone],"plasma levels of certain lipid classes (PE, PC, TG, LY)",[2],significant increases
same,effect on lipid homeostasis (gene expression signature),ARPE-19 cell line,share a common gene expression signature
same,over-expression of RNAs for the desaturase genes FADS1 and FADS2,ARPE-19 cell line,over-expression
same,risk for weight gain and hyperlipidemia,[6],much lower risk
O=C1Cc2cc(CCN3CCN(c4nsc5ccccc45)CC3)c(Cl)cc2N1 [ziprasidone],effect on lipid homeostasis (gene expression signature),ARPE-19 cell line,share a common gene expression signature
same,risk for weight gain and hyperlipidemia,[6],much lower risk
COc1cc(C(C)=O)ccc1OCCCN1CCC(c2noc3cc(F)ccc23)CC1 [iloperidone],up-regulation of the top 20 probe sets of the antipsychotic group profile,ARPE-19 cell line,stronger up-regulation
Cc1cc2c(s1)Nc1ccccc1N=C2N1CCN(C)CC1 [olanzapine],risk for weight gain and hyperlipidemia,[6],significant increased risk
O=C(c1ccc(OCCN2CCCCC2)cc1)c1c(-c2ccc(O)cc2)sc2cc(O)ccc12 [raloxifene],effect on lipid homeostasis (gene expression signature),ARPE-19 cell line,alter lipid homeostasis
